For two molecules, Solubility of biocides results are on record in patent US8728978B2, “Biocide compositions (IV)” (Cognis IP Management GmbH, priority 2009, dated 2014).

This data set in a line: Solubility of biocides in different solvents at 25° C. The format is physicochemical. On the procedure: Solubility of two fungicides, one herbicide and one insecticide in different solvents at 25° C. was tested.
[1] abbreviates: solvent: C8-C10 fatty acid dimethylamide (Ex. C3).
The mark [2] stands for this setting: solvent: Lactic acid dimethyl amide (Ex. C4).
[3] abbreviates: solvent: Levulinic acid tetrahydrofurfuryl ester (Ex. 7).

As to `O=C(NC(=O)c1c(F)cccc1F)Nc1ccc(OC(F)(F)C(F)OC(F)(F)F)c(Cl)c1` (stereo not drawn) [Novaluron], the Solubility of biocides is given as 32 % b.w under setting [1], 22 % b.w under setting [2] and 24 % b.w under setting [3].
In turn, `CCOc1cc(Oc2ccc(C(F)(F)F)cc2Cl)ccc1[N+](=O)[O-]` [Oxyfluorfen] came in with a Solubility of biocides under setting [1] of 31 % b.w, a Solubility of biocides under setting [2] of 23 % b.w and a Solubility of biocides under setting [3] of 33 % b.w.
